Experimental data: US6479293B1, “Temperature indicating material and temperature monitoring member” (Toshiba Tec Kabushiki Kaisha, priority 1999, dated 2002)

Method: The solubility of propyl gallate (PG) in molten cyclododecanol (CD) was studied. […] Here, temperature indicating members were prepared by adding cylododecanol (CD) in an amount permitting dissolution of 8 times the amount (Example 3), 4 times the amount (Example 4), twice the amount (Example 5), 1.2 times the amount (Example 6) and 0.8 time the amount (Example 7) of 1 part by weight of propyl gallate (PG), respectively. […] As comparative examples, a temperature indicating material free of cyclododecanol (CD) and that containing 5 parts by weight of 1-docosanol, which is a linear saturated alcohol, instead of cyclododecanol (CD) were prepared in Comparative Example 4 and Comparative Example 5, respectively.

| Solubility | Solubility of propyl gallate (PG) in molten cyclododecanol (CD) | Structure (SMILES) |
| --- | --- | --- |
| 2 | – | O=C(c1ccc(O)cc1)c1ccc(O)c(O)c1O [Example 2344, 2,3,4,4′-tetrahydroxybenzophenone] |
| 8 | at least 0.8 g | CCCOC(=O)c1cc(O)c(O)c(O)c1 [PG, propyl gallate] |
| 3 | – | CC(C)(c1ccc(O)cc1)c1ccc(O)cc1 [HBA, bisphenol A] |
| 10 | – | CCCCCCCCCCCCOC(=O)c1cc(O)c(O)c(O)c1 [LG, lauryl gallate] |
